Patent publication US10717720B2, “Modified compound of andrographolide” (Heilongjiang Zhenbaodao Pharmaceutical Co., Ltd., priority 2015, dated 2020)
Where two headings read alike, the source gives them in different places.

Test system: LPS-induced IL-6 release level from THP-1 cells
Test: Test of IL-6 release from THP-1 cells (LPS-induced, IL-6 in supernatant detected by CBA)
Assay type: cell-based
Conditions: Homo sapiens, read-out: Inhibition rate @ 10 uM
Procedure: Test of IL-6 Release from THP-1 Cells
The inhibitory effect of the compound on LPS-induced IL-6 release level from THP-1 cells was evaluated by measuring the level of IL-6 in the cell culture supernatant.
4 ul was taken from each above solution and added to lml of culture solution to make 120 uM, 40 uM, 12 uM, 4 uM. 50 ul per well was taken and added to wells with cells to give final concentrations of 30 uM, 10 uM, 3 uM, and 1 uM, respectively. Dexamethasone was added as a positive drug into an individual cell well with a final concentration of 100 nM. • c) Cell stimulation
The LPS 1 mg/ml solution was diluted to 800 ng/ml with the culture solution and added to the cell culture wells at 50 ul/well. • d) Cell incubation and detection
The cell culture plate was placed in a 37° C. incubator, and the supernatant was collected after culturing for 24 hours. The level of IL-6 in the supernatant was detected by CBA.

[1] = inflammatory factor IL-6 detected by CBA, compound 10 uM, LPS-stimulated THP-1 cells, supernatant after 24 hours

| Structure (SMILES) | inhibition at 10 µM [1] [%] | inhibition at 10 µM (THP-1, 24 h) [%] |
| --- | --- | --- |
| C=C1CCC2[C@]3(C)CO[C@@H](C4CCCC4)O[C@@H]3CC[C@@]2(C)[C@@H]1CCOc1cncc(OC)c1 (stereo partly drawn) [Compound 442, 3-(2-((3R,4aR,6aS,7R,10bR)-3-cyclopentyl-6a,10b-dimethyl-8-dihydromethylenedecahydro-1H-naphtho[2,1-d][1,3]dioxin-7-yl)ethoxy)-5-methoxypyridine] | 30 to 60 |  |
| C=C1CCC2[C@]3(C)CO[C@@H](C4CCCC4)O[C@@H]3CC[C@@]2(C)[C@@H]1CCN1CCC2(CCN(C)CC2)C1 (stereo partly drawn) [Compound 181] | < 30 |  |
| C=C1CCC2[C@]3(C)CO[C@@H](C4CCCC4)O[C@@H]3CC[C@@]2(C)[C@@H]1CCN1CCC[C@H]1C(=O)OC (stereo partly drawn) [Compound 147] | < 30 |  |
| C=C1CCC2[C@]3(C)CO[C@@H](C4CCCC4)O[C@@H]3CC[C@@]2(C)[C@@H]1CCOc1ccn(CC(=O)O)c(=O)c1 (stereo partly drawn) [Compound 428, 2-(4-(2-((3R,4aR,6aS,7R,10bR)-3-cyclopentyl-6a,10b-dimethyl-8-dihydromethylenedecahydro-1H-naphtho[2,1-d][1,3]dioxin-7-yl)ethoxy)-2-carbonylpyridin-1(2H)-yl)acetic acid] |  | 30 to 60 |
| C=C1CCC2[C@](C)(CO)[C@H](O)CC[C@@]2(C)[C@@H]1CCOc1ccncc1 (stereo partly drawn) [Compound 385, (1R,2R,4aS,5R)-1-(hydroxymethyl)-1,4a-dimethyl-6-dihydromethylene-5-(2-(pyridin-4-oxy)ethyl) decahydronaphthalene-2-ol] | > 60 |  |
| C=C1CCC2[C@]3(C)CO[C@@H](C4CCCC4)O[C@@H]3CC[C@@]2(C)[C@@H]1CCOc1ccncn1 (stereo partly drawn) [Compound 312, 4-(2-((3R,4aR,6aS,7R,10bR)-3-cyclopentyl-6a,10b-dimethyl-8-dihydromethylenedecahydro-1H-naphtho[2,1-d][1,3]dioxin-7-yl)ethoxy)pyrimidine] |  | < 30 |
| C=C1CCC2[C@]3(C)CO[C@@H](C4CCCC4)O[C@@H]3CC[C@@]2(C)[C@@H]1CCN1CC[C@H](NC(C)=O)C1 (stereo partly drawn) [Compound 149, N-((3 S)-1-(2-((3R,4aR,6aS,7R,10bR)-3-cyclopentyl-6a,10b-dimethyl-8-methylenedecahydro-1H-naphtho[2,1-d][1,3]dioxain-7-yl)ethyl)pyrrolidin-3-yl)acetamide] | 30 to 60 |  |
| C=C1CCC2[C@]3(C)CO[C@@H](C4CCCC4)O[C@@H]3CC[C@@]2(C)[C@@H]1CCOc1cccc(C(=O)O)c1 (stereo partly drawn) [Compound 423, 3-(2-((3R,4aR,6aS,7R,10bR)-3-cyclopentyl-6a,10b-dimethyl-8-dihydromethylenedecahydro-1H-naphtho[2,1-d][1,3]dioxin-7-yl)ethoxy)benzoic acid] | 30 to 60 |  |
| C=C1CCC2[C@]3(C)CO[C@@H](C4CCCC4)O[C@@H]3CC[C@@]2(C)[C@@H]1CCOc1ccnc(N)c1 (stereo partly drawn) [Compound 321, 4-(2-((3R,4aR,6aS,7R,10bR)-3-cyclopentyl-6a,10b-dimethyl-8-dihydromethylenedecahydro-1H-naphtho[2,1-d][1,3]dioxin-7-yl)ethoxy)-pyridin-2-amine] | < 30 |  |
| C=C1CCC2[C@](C)(CO)[C@H](O)CC[C@@]2(C)[C@@H]1CCOC1CCN(C)CC1 (stereo partly drawn) [Compound 386, (1R,2R,4aS,5R)-1-(hydroxymethyl)-1,4a-dimethyl-6-dihydromethylene-5-(2-((1-methylpiperidine-4-yl)oxy)ethyl) decahydronaphthalene-2-ol] | < 30 |  |
| C=C1CCC2[C@]3(C)CO[C@@H](C4CCCC4)O[C@@H]3CC[C@@]2(C)[C@@H]1CCO (stereo partly drawn) [Compound 399, 2-((3R,4aR,6aS,7R,10bR)-3-cyclopentyl-6a,10b-dimethyl-8-dihydromethylenedecahydro-1H-naphtho[2,1-d][1,3]dioxin-7-yl)ethanol] | > 60 |  |
| C=C1CCC2[C@]3(C)CO[C@@H](C4CCCC4)O[C@@H]3CC[C@@]2(C)[C@@H]1CCN1CCC(CO)CC1 (stereo partly drawn) [Compound 002, (1-(2-((3R,4aR,6aS,7R,10bR)-3-cyclopentyl-6a,10b-dimethyl-8-methylene-decahydro-1H-naphtho[2,1-d][1,3]dioxin-7-yl)ethyl)piperidin-4-yl)methanol] | < 30 |  |
| C=C1CCC2[C@]3(C)CO[C@@H](C4CCCC4)O[C@@H]3CC[C@@]2(C)[C@@H]1CCOc1cnccc1C(=O)O (stereo partly drawn) [Compound 415, 3-(2-((3R,4aR,6aS,7R,10bR)-3-cyclopentyl-6a,10b-dimethyl-8-dihydromethylenedecahydro-1H-naphtho[2,1-d][1,3]dioxin-7-yl)ethoxy)isonicotinic acid] | > 60 |  |
| C=C1CCC2[C@]3(C)CO[C@@H](C4CCCC4)O[C@@H]3CC[C@@]2(C)[C@@H]1CCOc1cncc(O)c1 (stereo partly drawn) [Compound 443, 5-(2-((3R,4aR,6aS,7R,10bR)-3-cyclopentyl-6a,10b-dimethyl-8-dihydromethylenedecahydro-1H-naphtho[2,1-d][1,3]dioxin-7-yl)ethoxy)-pyridin-3-ol] | 30 to 60 |  |
| C=C1CCC2[C@]3(C)CO[C@@H](C4CCCC4)O[C@@H]3CC[C@@]2(C)[C@@H]1CCOc1ccc(C(=O)O)cc1 (stereo partly drawn) [Compound 422, 4-(2-((3R,4aR,6aS,7R,10bR)-3-cyclopentyl-6a,10b-dimethyl-8-dihydromethylenedecahydro-1H-naphtho[2,1-d][1,3]dioxin-7-yl)ethoxy)benzoic acid] | 30 to 60 |  |
| C=C1CCC2[C@]3(C)CO[C@@H](C4CCOCC4)O[C@@H]3CC[C@@]2(C)[C@@H]1CCOc1ccncc1 (stereo partly drawn) [Compound 446, 4-(2-((3R,4aR,6aS,7R,10bR)-6a,10b-dimethyl-8-dihydromethylene-3-(tetrahydro-2H-pyran-4-yl)decahydro-1H-naphtho[2,1-d][1,3]dioxin-7-yl)ethoxy)pyridine] | < 30 |  |
| C=C1CCC2[C@]3(C)CO[C@@H](C4CCCC4)O[C@@H]3CC[C@@]2(C)[C@@H]1CCN1CCOC[C@@H]1C(=O)O (stereo partly drawn) [Compound 456] | > 60 |  |
| C=C1CCC2[C@]3(C)CO[C@@H](C4CCCC4)O[C@@H]3CC[C@@]2(C)[C@@H]1CCN1CCOC1=O (stereo partly drawn) [Compound 196, 3-(2-((3R,4aR,6aS,7R,10bR)-3-cyclopentyl-6a,10b-dimethyl-8-decahydromethylene-1H-naphtho[2,1-d][1,3]dioxin-7-yl)ethyl)oxazolidin-2-one] | 30 to 60 |  |
| C=C1CCC2[C@]3(C)CO[C@@H](C4CCCC4)O[C@@H]3CC[C@@]2(C)[C@@H]1CCOc1ccnc(C)c1 (stereo partly drawn) [Compound 319, 4-(2-((3R,4aR,6aS,7R,10bR)-3-cyclopentyl-6a,10b-dimethyl-8-dihydromethylenedecahydro-1H-naphtho[2,1-d][1,3]dioxin-7-yl)ethoxy)-2-methylpyridine] | 30 to 60 |  |
| C=C1CCC2[C@]3(C)CO[C@@H](c4ccc(F)c(F)c4)O[C@@H]3CC[C@@]2(C)[C@@H]1CCN1C(=O)COC1=O (stereo partly drawn) [Compound 215, 3-(2-((3R,4aR,6aS,7R,10bR)-3-(3,4-difluorophenyl)-6a, 10b-dimethyl-8-methylenedecahydro-1H-naphtho[2,1-d][1,3]dioxin-7-yl)ethyl)oxazolidine-2,4-dione] | < 30 |  |
| C=C1CCC2[C@]3(C)CO[C@@H](C4CCCC4)O[C@@H]3CC[C@@]2(C)[C@@H]1CCOC1CCN(S(=O)(=O)C2CC2)CC1 (stereo partly drawn) [Compound 484, 4-(2-((3R,4aR,6aS,7R,10bR)-3-cyclopentyl-6a,10b-dimethyl-8-dihydromethylene-decahydro-1H-naphtho[2,1-d][1,3]dioxin-7-yl)ethoxyl)-1-(cyclopropylsulfonyl)piperidine] | > 60 |  |
| C=C1CCC2[C@]3(C)CO[C@@H](c4ccc(F)c(F)c4)O[C@@H]3CC[C@@]2(C)[C@@H]1CCN1C(=O)CCC1=O (stereo partly drawn) [Compound 214, 1-(2-((3R,4aR,6aS,7R,10bR)-3-(3,4-difluorophenyl)-6a, 10b-dimethyl-8-methylenedecahydro-1H-naphtho[2,1-d][1,3]dioxin-7-yl)ethyl)pyrrolidine-2,5-dione] | > 60 |  |
| C=C1CCC2[C@]3(C)CO[C@@H](C4CCCC4)O[C@@H]3CC[C@@]2(C)[C@@H]1CCOC1CCN(CCO)CC1 (stereo partly drawn) [Compound 482, 2-(4-(2-((3R,4aR,6aS,7R,10bR)-3-cyclopentyl-6a,10b-dimethyl-8-dihydromethylenedecahydro-1H-naphtho[2,1-d][1,3]dioxin-7-yl)ethoxy)piperidine-1-yl)ethanol] | > 60 |  |
| C=C1CCC2[C@]3(C)CO[C@@H](C4CCCC4)O[C@@H]3CC[C@@]2(C)[C@@H]1CCN1CCC(C(=O)O)CC1 (stereo partly drawn) [Compound 256, 1-(2-((3R,4aR,6aS,7R,10bR)-3-cyclopentyl-6a,10b-dimethyl-8-methylene-decahydro-1H-naphtho[2,1-d][1,3]dioxin-7-yl)ethyl)piperidin-4-carboxylic acid] | < 30 |  |
| C=C1CCC2[C@]3(C)CO[C@@H](C4CCCC4)O[C@@H]3CC[C@@]2(C)[C@@H]1CCN1CCC(OC)C1 (stereo partly drawn) [Compound 116] | 30 to 60 |  |
| C=C1CCC2[C@]3(C)CO[C@@H](C4CCCC4)O[C@@H]3CC[C@@]2(C)[C@@H]1CCN1CCC[C@@H]1C(=O)O (stereo partly drawn) [Compound 450] | > 60 |  |
| C=C1CCC2[C@]3(C)CO[C@@H](C4CCCC4)O[C@@H]3CC[C@@]2(C)[C@@H]1CCOc1c(C(=O)O)cncc1C(=O)O (stereo partly drawn) [Compound 417, 4-(2-((3R,4aR,6aS,7R,10bR)-3-cyclopentyl-6a,10b-dimethyl-8-dihydromethylenedecahydro-1H-naphtho[2,1-d][1,3]dioxin-7-yl)ethoxy)pyridine-3,5-dicarboxylic acid] | < 30 |  |
